Source: patent US10669240B2, “5-substituted indazole-3-carboxamides and preparation and use thereof” (Samumed, LLC, priority 2014, dated 2020)

The compounds below were run against DYRK1A (Homo sapiens (Human), UniProt Q13627) (assay: DYRK1A activity Tau assay: pSer396 Tau in SH-SY5Y cells by ELISA / western blot). Details: overnight (16-18 h) exposure.
Type: cell-based
Work on O=C(NC1CCOCC1)c1n[nH]c2ccc(-c3cccnc3)cc12 [Compound 2, 5-(Pyridin-3-yl)-N-(tetrahydro-2H-pyran-4-yl)-1H-indazole-3-carboxamide] yielded an EC50 of 0.031 µM. CC(C)NC(=O)c1n[nH]c2ccc(-c3cccnc3)cc12 [Compound 7, N-Isopropyl-5-(pyridin-3-yl)-1H-indazole-3-carboxamide] was tested, and the EC50 was 0.055 µM. Work on CN1CCC(NC(=O)c2n[nH]c3ccc(-c4cncc(CN5CCC(F)(F)C5)c4)cc23)CC1 [Compound 10, 5-(5-((3,3-Difluoropyrrolidin-1-yl)methyl)pyridin-3-yl)-N-(1-methylpiperidin-4-yl)-1H-indazole-3-carboxamide] yielded an EC50 of 0.008 µM. Work on O=C(NC1CCCCC1)c1n[nH]c2ccc(-c3cccc(F)c3)cc12 [Compound 12, N-Cyclohexyl-5-(3-fluorophenyl)-1H-indazole-3-carboxamide] yielded an EC50 greater than 10 µM. Compound O=C(NC1CCOCC1)c1n[nH]c2ccc(-c3cccc(F)c3)cc12 [Compound 13, 5-(3-Fluorophenyl)-N-(tetrahydro-2H-pyran-4-yl)-1H-indazole-3-carboxamide] has an EC50 of 0.332 µM. Work on CN1CCC(NC(=O)c2n[nH]c3ccc(-c4ccccc4)cc23)CC1 [Compound 14, N-(1-Methylpiperidin-4-yl)-5-phenyl-1H-indazole-3-carboxamide] yielded an EC50 of 1.15 µM. CN1CCC(NC(=O)c2n[nH]c3ccc(-c4cccc(F)c4)cc23)CC1 [Compound 15, 5-(3-Fluorophenyl)-N-(1-methylpiperidin-4-yl)-1H-indazole-3-carboxamide] gave an EC50 of 0.324 µM. Compound CN1CCC(NC(=O)c2n[nH]c3ccc(-c4ccc(F)cc4)cc23)CC1 [Compound 17, 5-(4-Fluorophenyl)-N-(1-methylpiperidin-4-yl)-1H-indazole-3-carboxamide] has an EC50 of 9 µM. For CN1CCC(NC(=O)c2n[nH]c3ccc(-c4ccc(F)cc4F)cc23)CC1 [Compound 18, 5-(2,4-Difluorophenyl)-N-(1-methylpiperidin-4-yl)-1H-indazole-3-carboxamide], the EC50 was 0.454 µM. CN1CCC(NC(=O)c2n[nH]c3ccc(-c4cccc(F)c4F)cc23)CC1 [Compound 20, 5-(2,3-Difluorophenyl)-N-(1-methylpiperidin-4-yl)-1H-indazole-3-carboxamide] gave an EC50 of 0.029 µM. Compound O=C(NC1Cc2ccccc2C1)c1n[nH]c2ccc(-c3cccnc3)cc12 [Compound 22, N-(2,3-Dihydro-1H-inden-2-yl)-5-(pyridin-3-yl)-1H-indazole-3-carboxamide] has an EC50 of 0.052 µM. With CN(C)Cc1cncc(-c2ccc3[nH]nc(C(=O)NC4Cc5ccccc5C4)c3c2)c1 [Compound 23, N-(2,3-Dihydro-1H-inden-2-yl)-5-(5-((dimethylamino)methyl)pyridin-3-yl)-1H-indazole-3-carboxamide] the EC50 was 0.031 µM. O=C(NC1Cc2ccccc2C1)c1n[nH]c2ccc(-c3cncc(CN4CCCCC4)c3)cc12 [Compound 24, N-(2,3-Dihydro-1H-inden-2-yl)-5-(5-(piperidin-1-ylmethyl)pyridin-3-yl)-1H-indazole-3-carboxamide] showed an EC50 of 0.015 µM. Work on O=C(NC1Cc2ccccc2C1)c1n[nH]c2ccc(-c3cncc(CN4CCCC4)c3)cc12 [Compound 25, N-(2,3-Dihydro-1H-inden-2-yl)-5-(5-(pyrrolidin-1-ylmethyl)pyridin-3-yl)-1H-indazole-3-carboxamide] yielded an EC50 of 0.028 µM. O=C(NCc1ccccc1)c1n[nH]c2ccc(-c3cncc(CN4CCCCC4)c3)cc12 [Compound 26, N-Benzyl-5-(5-(piperidin-1-ylmethyl)pyridin-3-yl)-1H-indazole-3-carboxamide] was tested, and the EC50 was 0.001 µM. Compound O=C(NCc1cccc(F)c1)c1n[nH]c2ccc(-c3cc(F)cc(CN4CCCCC4)c3)cc12 [Compound 30, 5-(3-Fluoro-5-(piperidin-1-ylmethyl)phenyl)-N-(3-fluorobenzyl)-1H-indazole-3-carboxamide] has an EC50 of 0.12 µM. O=C(NCc1cc(F)cc(F)c1)c1n[nH]c2ccc(-c3cc(F)cc(CN4CCCCC4)c3)cc12 [Compound 31, N-(3,5-Difluorobenzyl)-5-(3-fluoro-5-(piperidin-1-ylmethyl)phenyl)-1H-indazole-3-carboxamide] showed an EC50 of 0.118 µM. Work on O=C(NC1(c2ccccc2)CC1)c1n[nH]c2ccc(-c3cccnc3)cc12 [Compound 32, N-(1-Phenylcyclopropyl)-5-(pyridin-3-yl)-1H-indazole-3-carboxamide] yielded an EC50 of 0.279 µM. Compound O=C(NC1(c2ccccc2)CC1)c1n[nH]c2ccc(-c3cncc(CN4CCCC4)c3)cc12 [Compound 34, N-(1-Phenylcyclopropyl)-5-(5-(pyrrolidin-1-ylmethyl)pyridin-3-yl)-1H-indazole-3-carboxamide] has an EC50 of 0.233 µM. With O=C(NC1(c2ccccc2)CC1)c1n[nH]c2ccc(-c3cncc(CN4CCCCC4)c3)cc12 [Compound 36, N-(1-Phenylcyclopropyl)-5-(5-(piperidin-1-ylmethyl)pyridin-3-yl)-1H-indazole-3-carboxamide] the EC50 was 0.158 µM. For CN(C)Cc1cncc(-c2ccc3[nH]nc(C(=O)NC4(c5ccccc5)CC4)c3c2)c1 [Compound 37, 5-(5-((Dimethylamino)methyl)pyridin-3-yl)-N-(1-phenylcyclopropyl)-1H-indazole-3-carboxamide], the EC50 was 0.196 µM. For O=C(Nc1ccc(C(F)(F)F)cn1)c1n[nH]c2ccc(-c3cccnc3)cc12 [Compound 40, 5-(Pyridin-3-yl)-N-(5-(trifluoromethyl)pyridin-2-yl)-1H-indazole-3-carboxamide], the EC50 was 0.372 µM. O=C(Nc1cc(C(F)(F)F)ccn1)c1n[nH]c2ccc(-c3cccnc3)cc12 [Compound 41, 5-(Pyridin-3-yl)-N-(4-(trifluoromethyl)pyridin-2-yl)-1H-indazole-3-carboxamide] showed an EC50 of 0.118 µM. With O=C(Nc1cccc(C(F)(F)F)n1)c1n[nH]c2ccc(-c3cccnc3)cc12 [Compound 42, 5-(Pyridin-3-yl)-N-(6-(trifluoromethyl)pyridin-2-yl)-1H-indazole-3-carboxamide] the EC50 was 0.115 µM. O=C(Nc1ncc(F)cc1F)c1n[nH]c2ccc(-c3cccnc3)cc12 [Compound 46, N-(3,5-Difluoropyridin-2-yl)-5-(pyridin-3-yl)-1H-indazole-3-carboxamide] was tested, and the EC50 was 0.004 µM. In the case of O=C(Nc1ccc(F)cn1)c1n[nH]c2ccc(-c3cncc(CN4CCCCC4)c3)cc12 [Compound 57, N-(5-Fluoropyridin-2-yl)-5-(5-(piperidin-1-ylmethyl)pyridin-3-yl)-1H-indazole-3-carboxamide], the EC50 is reported as 0.002 µM. In the case of O=C(Nc1ncccc1C(F)(F)F)c1n[nH]c2ccc(-c3cncc(CN4CCCCC4)c3)cc12 [Compound 59, 5-(5-(Piperidin-1-ylmethyl)pyridin-3-yl)-N-(3-(trifluoromethyl)pyridin-2-yl)-1H-indazole-3-carboxamide], the EC50 is reported as 0.013 µM. Work on O=C(Nc1cc(C(F)(F)F)ccn1)c1n[nH]c2ccc(-c3cncc(CN4CCCCC4)c3)cc12 [Compound 60, 5-(5-(Piperidin-1-ylmethyl)pyridin-3-yl)-N-(4-(trifluoromethyl)pyridin-2-yl)-1H-indazole-3-carboxamide] yielded an EC50 of 0.02 µM. O=C(Nc1ccc(C(F)(F)F)cn1)c1n[nH]c2ccc(-c3cncc(CN4CCCCC4)c3)cc12 [Compound 61, 5-(5-(Piperidin-1-ylmethyl)pyridin-3-yl)-N-(5-(trifluoromethyl)pyridin-2-yl)-1H-indazole-3-carboxamide] gave an EC50 of 0.01 µM. Work on O=C(Nc1cccc(C(F)(F)F)n1)c1n[nH]c2ccc(-c3cncc(CN4CCCCC4)c3)cc12 [Compound 62, 5-(5-(Piperidin-1-ylmethyl)pyridin-3-yl)-N-(6-(trifluoromethyl)pyridin-2-yl)-1H-indazole-3-carboxamide] yielded an EC50 of 0.005 µM. For [2H]C([2H])(c1cncc(-c2ccc3[nH]nc(C(=O)Nc4cccnc4)c3c2)c1)N1CCCCC1 [Compound 63, 5-(5-(piperidin-1-ylmethyl-d2)pyridin-3-yl)-N-(pyridin-3-yl)-1H-indazole-3-carboxamide], the EC50 was 0.001 µM. In the case of O=C(Nc1c(F)cncc1F)c1n[nH]c2ccc(-c3cncc(CN4CCCCC4)c3)cc12 [Compound 79, N-(3,5-Difluoropyridin-4-yl)-5-(5-(piperidin-1-ylmethyl)pyridin-3-yl)-1H-indazole-3-carboxamide], the EC50 is reported as 0.001 µM. CC(C)N1CCC(NC(=O)c2n[nH]c3ccc(-c4cccc(F)c4F)cc23)CC1 [Compound 92, 5-(2,3-Difluorophenyl)-N-(1-isopropylpiperidin-4-yl)-1H-indazole-3-carboxamide] showed an EC50 of 0.1 µM. Compound CC(C)CN1CCC(NC(=O)c2n[nH]c3ccc(-c4cccc(F)c4F)cc23)CC1 [Compound 93, 5-(2,3-Difluorophenyl)-N-(1-isobutylpiperidin-4-yl)-1H-indazole-3-carboxamide] has an EC50 of 0.073 µM. Compound CN1CCC(NC(=O)c2n[nH]c3ccc(-c4ccc(C(F)(F)F)nc4)cc23)CC1 [Compound 94, N-(1-Methylpiperidin-4-yl)-5-(6-(trifluoromethyl)pyridin-3-yl)-1H-indazole-3-carboxamide] has an EC50 greater than 10 µM. In the case of O=C(Nc1ccnc(N2CCCCC2)c1)c1n[nH]c2ccc(-c3cncc(CN4CCCCC4)c3)cc12 [Compound 101, N-(2-(Piperidin-1-yl)pyridin-4-yl)-5-(5-(piperidin-1-ylmethyl)pyridin-3-yl)-1H-indazole-3-carboxamide], the EC50 is reported as 0.001 µM. O=C(Nc1ccnc(N2CCCC2)c1)c1n[nH]c2ccc(-c3cccnc3)cc12 [Compound 102, 5-(Pyridin-3-yl)-N-(2-(pyrrolidin-1-yl)pyridin-4-yl)-1H-indazole-3-carboxamide] gave an EC50 of 0.004 µM. Compound CC(C)NC(=O)c1n[nH]c2ccc(-c3cncc(CN4CCC4)c3)cc12 [Compound 128, 5-(5-(Azetidin-1-ylmethyl)pyridin-3-yl)-N-isopropyl-1H-indazole-3-carboxamide] has an EC50 of 0.043 µM. Compound CC(C)NC(=O)c1n[nH]c2ccc(-c3cncc(CN4CCCCC4)c3)cc12 [Compound 131, N-Isopropyl-5-(5-(piperidin-1-ylmethyl)pyridin-3-yl)-1H-indazole-3-carboxamide] has an EC50 of 0.01 µM. In the case of CC(C)NC(=O)c1n[nH]c2ccc(-c3cccc(F)c3F)cc12 [Compound 140, 5-(2,3-Difluorophenyl)-N-isopropyl-1H-indazole-3-carboxamide], the EC50 is reported as 0.576 µM. O=C(NC1CC1)c1n[nH]c2ccc(-c3cncc(N4CCCC4)c3)cc12 [Compound 143, N-Cyclopropyl-5-(5-(pyrrolidin-1-yl)pyridin-3-yl)-1H-indazole-3-carboxamide] showed an EC50 of 0.01 µM.
